Measurements reported in patent US20220152100A1, “METHODS FOR CONTROLLED ACTIVATION OR ELIMINATION OF THERAPEUTIC CELLS” (Bellicum Pharmaceuticals, Inc., priority 2014, published 2022).
Values joined by “and” are separate entries in the source; they are usually repeats but may differ in a detail not shown here. Identical values can stand only once.

How the values were obtained:
[1] = system: EBV-specific CTL lines (EBV-CTL); assay: CID-induced elimination/apoptosis of transduced EBV-CTLs (GFP, annexin V/7-AAD flow cytometry); format: cell-based, human; conditions: for elimination of GFP+ cells: GFPhigh
MT-2 = assay: CID-induced apoptosis (annexin V) in transduced MT-2 cells; format: cell-based, human; conditions: 8 hours
[2] = system: gene-modified allodepleted cells (SFG.iCasp9.2A.CD19); assay: AP20187-induced apoptosis of gene-modified allodepleted T cells (annexin V/7-AAD); format: cell-based, human
Description: Suicide gene functionality was assessed by adding a small molecule synthetic homodimerizer, AP20187 (Ariad Pharmaceuticals; Cambridge, Mass.), at 10 nM final concentration the day following CD19 immunomagnetic selection. Cells were stained with annexin V and 7-amino-actinomycin (7-AAD)(BD Pharmingen) at 24 hours and analyzed by flow cytometry. Cells negative for both annexin V and 7-AAD were considered viable, cells that were annexin V positive were apoptotic, and cells that were both annexin V and 7-AAD positive were necrotic. The percentage killing induced by dimerization was corrected for baseline viability as follows: Percentage killing=100%−(% Viability in AP20187-treated cells÷% Viability in non-treated cells).
Cells were maintained in T cell medium containing 50 U/ml IL-2 until 22 days after transduction. A portion of cells was reactivated on 24-well plates coated with […] OKT3 and 1 μg/ml anti-CD28 (Clone CD28.2, BD Pharmingen, San Jose, Calif.) for 48 to 72 hours. CD19 expression and suicide gene function in both reactivated and non-reactivated cells were measured on day 24 or 25 post transduction.
The day following immunomagnetic selection, 10 nM of the chemical inducer of dimerization, AP20187, was added to induce apoptosis, which appeared within 24 hours. […] Killing efficiency after correction for baseline viability was about 92.9%±3.8%. Large-scale CD19 selection produced cells that were killed with similar efficiency as small-scale selection: mean viability with and without AP20187, and percentage killing, in large and small scale were about 3.9%, about 84.0%, about 95.4% (n=3) and about 6.6%, about 79.3%, about 91.4% (n=5) respectively. AP20187 was non-toxic to non-transduced cells: viability with and without AP20187 was about 86%±9% and 87%±8% respectively (n=6).
To assess the stability of transgene expression and function, cells were maintained in T cell culture medium and low dose IL-2 (50 U/ml) until […] after transduction. A portion of cells was then reactivated with OKT3/anti-CD28. CD19 expression was analyzed by flow cytometry 48 to 72 hours later, and suicide gene function was assessed by treatment with 10 nM AP20187. The obtained are for cells from day 5 post transduction (ie, 1 day after CD 19 selection) and day 24 post transduction, with or without 48-72 hours of reactivation (5 experiments). In 2 experiments, CD25 selection was performed after OKT3/aCD28 activation to further enrich activated cells. Error bars represent standard deviation. * indicates p<0.05 when compared to cells from day 5 post transduction. By day 24, surface CD19 expression fell from about 98%±1% to about 88%±4% (p<0.05) with a parallel decrease in mean fluorescence intensity (MFI) from 793±128 to 478±107 (p<0.05) (see FIG. 13B). Similarly, there was a significant reduction in suicide gene function: residual viability was 19.6±5.6% following treatment with AP20187; after correction for baseline viability of 54.8±20.9%, this equated to killing efficiency of only 63.1±6.2%.
To determine whether the decrease in transgene expression with time was due to reduced transcription following T cell quiescence or to elimination of transduced cells, a portion of cells were reactivated on day 22 post transduction with OKT3 and anti-CD28 antibody. […] CD19 expression increased from about 88%±4% to about 93%±4% (p<0.01) and CD19 MFI increased from 478±107 to 643±174 (p<0.01). […] Killing of the CD25 negative fraction was 78.6±9.1%.

[3] = system: EBV-specific and CMV-specific T cells; assay: Pentamer analysis of virus-specific T cells after dimerizer; format: cell-based, human; conditions: 10 nM after 4 days reactivation with allogeneic PBMC
MSCs = assay: CID-induced apoptosis of iCasp9-ΔCD19 transduced undifferentiated MSCs
[4] = T cells selected for high expression, overnight 10 nM
[5] = 10 nM, 24 hours, day after CD19 selection

Which results are given for `CC[C@H](C(=O)N1CCCC[C@H]1C(=O)O[C@H](CCc1ccc(OC)c(OC)c1)c1cccc(OCC(=O)NCC(CNC(=O)COc2cccc([C@@H](CCc3ccc(OC)c(OC)c3)OC(=O)[C@@H]3CCCCN3C(=O)[C@@H](CC)c3cc(OC)c(OC)c(OC)c3)c2)CN(C)C)c1)c1cc(OC)c(OC)c(OC)c1` [AP20187]?
concentration sufficient to obtain the maximal deletion effect ([1]; F-Casp9M.I.GFPhigh, survival of GFP+ cells on day 7): 1 nM; time to apoptotic characteristics (cell shrinkage and fragmentation) ([1]; GFPhigh-selected cells, 10 nM): ≤ 14 h; deletion of transduced cells ([1]; GFPhigh-selected iCasp9M cells, 10 nM, day 7): 99.1%; apoptotic (annexin-V+/7-AAD−) phenotype [1, 4]: 64%; necrotic (annexinV+/7-AAD+) phenotype [1, 4]: 30%; reduction in mean fluorescence intensity of GFP in surviving CTLs ([1]; iCasp9M-transduced CTLs after CID): 70%; elimination of GFP+ cells ([1]; iCasp9M-transduced CTLs, 10 nM, day 7): 99.2%+/−0.14; elimination of GFP+ cells ([1]; iFas-transduced CTLs, 10 nM, day 7): 89.3%+/−4.9; apoptotic cells (annexin-V) (MT-2; iCasp9M-transduced MT-2, 10 nM): 57.9%+/−11.9; apoptotic cells (annexin-V) (MT-2; iFas-transduced MT-2, 10 nM): 19.3%+/−8.4; killing efficiency after correction for baseline viability [2, 5]: about 92.9%±3.8; viable cells (annexin V and 7-AAD negative) [2, 5]: about 5.5%±2.5; killing efficiency ([2]; OKT3/aCD28-reactivated cells, day 24 or 25): ~84.6%±8.0; mean viability ([2]; small-scale CD19 selection, n=5): about 6.6%; viability of non-transduced cells ([2]; with AP20187, n=6): about 86%±9; effect on virus-specific T cells (HLA pentamers, EBV and CMV) [3]: spares (and thereby enriches) viral reactive subpopulations; apoptosis index (MSCs; iCasp9-negative MSCs, 50 nM, 24 hrs, listed as CID): 20±7% and 19%; apoptotic death (MSCs; iCasp9-positive MSCs, 50 nM, 24 hrs): 93±1%; apoptotic cells (MSCs; magnetically immunoselected iCasp9-CD19-positive MSCs): More than 95%; annexin positive cells (MSCs; non-transduced control MSC (Control/CID), 50 nM): 15%
